Measured values published in publication PMC8338929, “Acetylation turns leucine into a drug by membrane transporter switching” (Scientific Reports, 2021).
Entries after “also recorded” stand apart in the source; their conditions may differ.

Columns and labels:
human PepT1 (SLC15A1) = target: T1, human PepT1 (SLC15A1) (Homo sapiens, UniProt P46059); assay: PepT1-mediated cellular uptake in transfected MDCK-II cells; format: cell-based; settings: pH 5.5, 37 °C
T1 construct: host or cells: MDCK-II
T1 sequence (P46059 1-708): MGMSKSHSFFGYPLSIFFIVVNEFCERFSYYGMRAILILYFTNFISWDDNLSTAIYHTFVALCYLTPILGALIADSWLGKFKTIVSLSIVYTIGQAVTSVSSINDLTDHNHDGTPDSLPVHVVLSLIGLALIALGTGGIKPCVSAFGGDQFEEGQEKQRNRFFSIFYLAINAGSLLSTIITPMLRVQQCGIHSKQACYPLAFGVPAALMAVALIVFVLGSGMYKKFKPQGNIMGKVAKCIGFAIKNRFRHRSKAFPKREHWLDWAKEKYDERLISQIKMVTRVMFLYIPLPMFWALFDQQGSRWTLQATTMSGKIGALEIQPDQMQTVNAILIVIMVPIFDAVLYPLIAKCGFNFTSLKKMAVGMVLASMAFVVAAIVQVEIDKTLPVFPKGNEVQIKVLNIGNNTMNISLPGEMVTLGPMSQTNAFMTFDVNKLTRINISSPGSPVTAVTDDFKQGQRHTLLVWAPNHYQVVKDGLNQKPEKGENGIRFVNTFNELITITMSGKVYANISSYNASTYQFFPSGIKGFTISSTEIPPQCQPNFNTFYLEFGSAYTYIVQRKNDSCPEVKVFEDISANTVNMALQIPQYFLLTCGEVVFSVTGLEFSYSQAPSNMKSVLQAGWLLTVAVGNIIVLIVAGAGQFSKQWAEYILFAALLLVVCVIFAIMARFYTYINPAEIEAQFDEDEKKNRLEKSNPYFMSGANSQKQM
Procedure: (§1) Transport studies with human PepT1 (SLC15A1), LAT1 (SLC7A5) and MCT1 (SLC16A1) were conducted in MDCK-II cells expressing the human transporter or control cells expressing a vector with Green Fluorescence Protein. Cells were transfected using a proprietary, transient transfection system (OPTI-EXPRESSION Technology, BioIVT). The results from the control cells were used to correct for substrate permeation by routes other than the transporter being investigated in the study. […] Specifically, Net Transporter Mediated Substrate Uptake (pmol/min/cm^2) = (Cellular accumulation in the presence of the transporter) − (Mean cellular accumulation in the absence of the transporter). MDCK-II cells were maintained in DMEM with low glucose and 10% FBS. Cells were used at passages up to 40 were seeded at 60,000 ± 10,000 cells/well on 96-well plates approximately 24 h before transfection, and transport assays were performed approximately 48 h after transfection. […]
(§2) Transport studies with PepT1 were conducted in 96-well cell culture plate with wells containing a monolayer of MDCK-II cells grown on a permeable support and a corresponding 96-well receiver tray. […] Then a 30-µL sample was taken and mixed with 200 µL of scintillation fluid and scintillation counted (1450 Microbeta, Perkin-Elmer). […]

human LAT1 (SLC7A5) = target: T2, human LAT1 (SLC7A5) (Homo sapiens, UniProt Q01650); assay: Inhibition of LAT1 uptake of probe substrate gabapentin in MDCK-II cells; format: cell-based; settings: probe gabapentin 10 µM; positive control JPH203 10 µM
T2 construct: host or cells: MDCK-II
Procedure: as §1, §2

T2 sequence (Q01650 whole entry): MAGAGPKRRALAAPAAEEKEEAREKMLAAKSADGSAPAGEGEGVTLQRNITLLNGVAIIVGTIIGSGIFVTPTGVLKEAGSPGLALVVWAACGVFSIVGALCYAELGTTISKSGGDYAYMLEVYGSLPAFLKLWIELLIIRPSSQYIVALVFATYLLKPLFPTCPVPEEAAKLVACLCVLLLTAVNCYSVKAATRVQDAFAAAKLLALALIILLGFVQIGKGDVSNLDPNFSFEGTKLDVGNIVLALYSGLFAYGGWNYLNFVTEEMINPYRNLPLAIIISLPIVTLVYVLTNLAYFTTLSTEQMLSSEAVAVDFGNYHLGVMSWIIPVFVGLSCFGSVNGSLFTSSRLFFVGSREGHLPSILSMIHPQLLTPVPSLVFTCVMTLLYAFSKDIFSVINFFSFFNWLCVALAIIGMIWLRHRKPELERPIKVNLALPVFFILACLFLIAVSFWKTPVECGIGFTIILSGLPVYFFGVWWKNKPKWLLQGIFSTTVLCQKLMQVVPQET
T2 sequence (P08195 102-630 partner): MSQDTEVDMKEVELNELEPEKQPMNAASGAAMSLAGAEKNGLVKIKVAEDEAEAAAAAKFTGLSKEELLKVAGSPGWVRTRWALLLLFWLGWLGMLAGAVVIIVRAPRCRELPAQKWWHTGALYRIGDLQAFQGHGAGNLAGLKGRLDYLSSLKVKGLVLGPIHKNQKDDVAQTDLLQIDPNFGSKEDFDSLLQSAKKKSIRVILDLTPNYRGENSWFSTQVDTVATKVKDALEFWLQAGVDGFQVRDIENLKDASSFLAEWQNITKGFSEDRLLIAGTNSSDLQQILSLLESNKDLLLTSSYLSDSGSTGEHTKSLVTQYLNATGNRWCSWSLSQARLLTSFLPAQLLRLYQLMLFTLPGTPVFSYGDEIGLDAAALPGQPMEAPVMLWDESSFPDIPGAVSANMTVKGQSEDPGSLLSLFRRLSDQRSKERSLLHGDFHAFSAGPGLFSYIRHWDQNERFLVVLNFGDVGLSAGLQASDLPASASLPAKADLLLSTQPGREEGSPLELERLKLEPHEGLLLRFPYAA

inhibitor of LAT1 (human LAT1 (SLC7A5)): nor an inhibitor
Compound: CC(=O)N[C@@H](CC(C)C)C(=O)O [N-acetyl-L-leucine]
substrate of PepT1 (uptake) (human PepT1 (SLC15A1)): not transported; also recorded: not a substrate
